Assays:
[1] = biological target: T1, CCK-1 receptor (Homo sapiens, UniProt P32238); experiment: CCK1 binding assay ([125I]-BH-CCK-8S displacement, CHO-K1 membranes); settings: membranes of CHO-K1 cells stably transfected with the CCK-1 receptor, 20 pM [125I]-BH-CCK-8S, 0.3 μM PD-134,308 present, 60 min at 21±3° C.; for Ki: read-out: CCK1 pKi (converted)
T1 construct: expressed in transfected cells; host or cells: CHO-K1
T1 sequence (P32238 1-428): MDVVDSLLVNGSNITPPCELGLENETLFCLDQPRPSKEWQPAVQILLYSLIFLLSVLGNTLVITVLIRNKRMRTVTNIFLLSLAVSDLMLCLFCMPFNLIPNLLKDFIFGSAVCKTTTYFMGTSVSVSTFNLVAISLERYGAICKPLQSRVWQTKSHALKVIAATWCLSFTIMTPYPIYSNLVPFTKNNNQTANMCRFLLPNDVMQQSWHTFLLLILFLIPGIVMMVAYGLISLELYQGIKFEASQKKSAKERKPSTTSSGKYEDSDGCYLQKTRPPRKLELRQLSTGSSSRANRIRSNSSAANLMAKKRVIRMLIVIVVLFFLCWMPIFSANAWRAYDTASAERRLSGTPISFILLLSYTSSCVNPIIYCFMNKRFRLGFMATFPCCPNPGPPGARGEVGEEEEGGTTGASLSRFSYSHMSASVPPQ
Procedure, shortened: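 Membranes from CHO-K1 cells stably expressing CCK-1 incubated 1 h at 21±3° C with 20 pM [125I]-BH-CCK-8S in HEPES buffer pH 7.2 containing 0.3 μM PD-134,308 to block CCK-2. Bound radioactivity read by gamma counting after filtration. pKi derived via Cheng-Prusoff, with specific binding defined using 2-NAP.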

[2] = biological target: T2, CCK2 receptor (Homo sapiens, UniProt P32239); experiment: CCK2 binding assay ([125I]-BH-CCK-8S displacement, HEKZFP membranes); settings: membranes of doxycycline-induced HEKZFP cells, 20 pM [125I]-BH-CCK-8S, 60 min at 21±3° C.; for Ki: read-out: CCK2 pKi (converted)
T2 construct: analyzed for ZFP expression as well as CCK2R induction upon addition of doxycycline to the culture medium; endogenous in cells
T2 sequence (P32239 1-447): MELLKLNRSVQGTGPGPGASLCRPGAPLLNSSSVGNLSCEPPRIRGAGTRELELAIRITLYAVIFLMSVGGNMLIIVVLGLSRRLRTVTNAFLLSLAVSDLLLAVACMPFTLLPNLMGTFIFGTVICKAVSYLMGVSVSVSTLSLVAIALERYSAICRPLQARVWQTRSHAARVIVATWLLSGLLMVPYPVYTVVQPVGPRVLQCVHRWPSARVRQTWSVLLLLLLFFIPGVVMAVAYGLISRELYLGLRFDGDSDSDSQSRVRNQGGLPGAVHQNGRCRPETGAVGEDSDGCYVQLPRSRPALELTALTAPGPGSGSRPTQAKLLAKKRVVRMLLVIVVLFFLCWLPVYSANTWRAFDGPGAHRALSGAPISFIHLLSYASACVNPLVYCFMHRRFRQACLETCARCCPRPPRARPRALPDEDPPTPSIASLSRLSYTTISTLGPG

## COC(=O)[C@@H](Cc1ccc(Cl)cc1)NC(=O)c1ccc(Cl)cc1NS(=O)(=O)c1ccc(F)cc1F [Example 69, (R)-2-[4-Chloro-2-(2,4-difluoro-benzenesulfonylamino)-benzoylamino]-3-(4-chloro-phenyl)-propionic acid methyl ester]
[1]
  Ki: 63.1 nM
[2]
  Ki: 7940 nM

## O=C(NCCc1ccc(Cl)cc1Cl)c1ccc(Cl)cc1NS(=O)(=O)c1cccc2nsnc12 [Example 70, 2-(Benzo[1,2,5]thiadiazole-4-sulfonylamino)-4-chloro-N-[2-(2,4-dichloro-phenyl)-ethyl]-benzamide]
[1]
  Ki: 200 nM
[2]
  Ki: 6310 nM

## COC(=O)[C@H](Cc1ccc(Cl)cc1)NC(=O)c1ccc(Cl)cc1NS(=O)(=O)c1ccc(F)cc1F [Example 71, (S)-2-[4-Chloro-2-(2,4-difluoro-benzenesulfonylamino)-benzoylamino]-3-(4-chloro-phenyl)-propionic acid methyl ester]
[1]
  Ki: 126 nM
[2]
  Ki: 2510 nM

## CC(CNC(=O)c1ccc(I)cc1NS(=O)(=O)c1cccc2nsnc12)c1ccc(Cl)cc1 (stereo not drawn) [Example 72, 2-(Benzo[1,2,5]thiadiazole-4-sulfonylamino)-N-[2-(4-chloro-phenyl)-propyl]-4-iodo-benzamide]
[1]
  Ki: 79.4 nM
[2]
  Ki: 501 nM

## C[C@H](NC(=O)c1ccc(Cl)cc1NS(=O)(=O)c1cccc2nsnc12)C(O)(c1ccccc1)c1ccccc1 [Example 74, (S)-2-(Benzo[1,2,5]thiadiazole-4-sulfonylamino)-4-chloro-N-(2-hydroxy-1-methyl-2,2-diphenyl-ethyl)-benzamide]
[1]
  Ki: 316 nM
[2]
  Ki: 7940 nM

## O=C(NCCc1ccc(Cl)cc1Cl)c1ccccc1NS(=O)(=O)c1cccc2nsnc12 [Example 75, 2-(Benzo[1,2,5]thiadiazole-4-sulfonylamino)-N-[2-(2,4-dichloro-phenyl)-ethyl]-benzamide]
[1]
  Ki: 1000 nM
[2]
  Ki: 3980 nM

## O=C(N[C@@H](Cc1ccc(F)cc1)C(=O)O)c1ccc(Cl)cc1NS(=O)(=O)c1cccc2nsnc12 [Example 76, (S)-2-[2-(Benzo[1,2,5]thiadiazole-4-sulfonylamino)-4-chloro-benzoylamino]-3-(4-fluoro-phenyl)-propionic acid]
[1]
  Ki: 3160 nM
[2]
  Ki: 39.8 nM

## O=C(N[C@@H](Cc1cccc(Cl)c1)C(=O)O)c1ccc(Cl)cc1NS(=O)(=O)c1cccc2nccnc12 [Example 78, (S)-3-(3-Chloro-phenyl)-2-[4-chloro-2-(quinoxaline-5-sulfonylamino)-benzoylamino]-propionic acid]
[1]
  Ki: 3980 nM
[2]
  Ki: 31.6 nM

## O=C(NCCc1ccc(Br)cc1)c1ccc(Cl)cc1NS(=O)(=O)c1c(F)cccc1F [Example 80, N-[2-(4-Bromo-phenyl)-ethyl]-4-chloro-2-(2,6-difluoro-benzenesulfonylamino)-benzamide]
[1]
  Ki: 100 nM
[2]
  Ki: 1580 nM

## CC(CNC(=O)c1c(Cl)cccc1NS(=O)(=O)c1cccc2nsnc12)c1ccc(Cl)c(Cl)c1 (stereo not drawn) [Example 81, 2-(Benzo[1,2,5]thiadiazole-4-sulfonylamino)-6-chloro-N-[2-(3,4-dichloro-phenyl)-propyl]-benzamide]
[1]
  Ki: 794 nM
[2]
  Ki: 2000 nM

## O=C(O)C[C@@H](Cc1ccc(Cl)c(Cl)c1)NC(=O)c1ccc(Cl)cc1NS(=O)(=O)c1cccc2nccnc12 [Example 82, (R)-3-[4-Chloro-2-(quinoxaline-5-sulfonylamino)-benzoylamino]-4-(3,4-dichloro-phenyl)-butyric acid]
[1]
  Ki: 794 nM
[2]
  Ki: 7940 nM

## O=C(N[C@@H](Cc1ccc(Cl)cc1)C(=O)O)c1cc(Cl)ccc1NS(=O)(=O)c1cccc2nsnc12 [Example 83, (S)-2-[2-(Benzo[1,2,5]thiadiazole-4-sulfonylamino)-5-chloro-benzoylamino]-3-(4-chloro-phenyl)-propionic acid]
[1]
  Ki: 1580 nM
[2]
  Ki: 251 nM

## COC(=O)C[C@H](Cc1ccc(Cl)cc1)NC(=O)c1ccc(Cl)cc1NS(=O)(=O)c1cccc2nccnc12 [Example 88, (S)-4-(4-Chloro-phenyl)-3-[4-chloro-2-(quinoxaline-5-sulfonylamino)-benzoylamino]-butyric acid methyl ester]
[1]
  Ki: 6310 nM
[2]
  Ki: 631 nM

## O=C(O)C[C@H](Cc1ccc(Cl)cc1)NC(=O)c1ccc(Cl)cc1NS(=O)(=O)c1cccc2nccnc12 [Example 89, (S)-4-(4-Chloro-phenyl)-3-[4-chloro-2-(quinoxaline-5-sulfonylamino)-benzoylamino]-butyric acid]
[1]
  Ki: 7940 nM
[2]
  Ki: 63.1 nM

## O=C(N[C@@H](Cc1ccc(Cl)cc1)C(=O)O)c1ccc(I)cc1NS(=O)(=O)c1cccc2nccnc12 [Example 90, (S)-3-(4-Chloro-phenyl)-2-[4-iodo-2-(quinoxaline-5-sulfonylamino)-benzoylamino]-propionic acid]
[1]
  Ki: 1260 nM
[2]
  Ki: 31.6 nM

## O=C(N[C@@H](Cc1ccc(Cl)c(Br)c1)C(=O)O)c1ccc(I)cc1NS(=O)(=O)c1cccc2nsnc12 [Example 91, (S)-2-[2-(Benzo[1,2,5]thiadiazole-4-sulfonylamino)-4-iodo-benzoylamino]-3-(3-bromo-4-chloro-phenyl)-propionic acid]
[1]
  Ki: 79.4 nM
[2]
  Ki: 15.8 nM

## O=C(N[C@@H](Cc1ccc(Cl)c(I)c1)C(=O)O)c1ccc(I)cc1NS(=O)(=O)c1cccc2nsnc12 [Example 92, (S)-2-[2-(Benzo[1,2,5]thiadiazole-4-sulfonylamino)-4-iodo-benzoylamino]-3-(4-chloro-3-iodo-phenyl)-propionic acid]
[1]
  Ki: 63.1 nM
[2]
  Ki: 31.6 nM

## O=C(N[C@@H](Cc1ccc(F)c(Br)c1)C(=O)O)c1ccc(I)cc1NS(=O)(=O)c1cccc2nsnc12 [Example 93, (S)-2-[2-(Benzo[1,2,5]thiadiazole-4-sulfonylamino)-4-iodo-benzoylamino]-3-(3-bromo-4-fluoro-phenyl)-propionic acid]
[1]
  CCK1 pKi: 6.8
[2]
  CCK2 pKi: 8.3

## O=C(N[C@H](C(=O)O)C(c1ccc(Cl)cc1)c1ccc(Cl)cc1)c1ccc(I)cc1NS(=O)(=O)c1cccc2nsnc12 [Example 94, (S)-2-[2-(Benzo[1,2,5]thiadiazole-4-sulfonylamino)-4-iodo-benzoylamino]-3,3-bis-(4-chloro-phenyl)-propionic acid]
[1]
  Ki: 6310 nM
[2]
  Ki: 1000 nM

## CC(C)(c1ccc(Cl)cc1)[C@H](NC(=O)c1ccc(I)cc1NS(=O)(=O)c1cccc2nsnc12)C(=O)O [Example 95, (S)-2-[2-(Benzo[1,2,5]thiadiazole-4-sulfonylamino)-4-iodo-benzoylamino]-3-(4-chloro-phenyl)-3-methyl-butyric acid]
[1]
  Ki: 3160 nM
[2]
  Ki: 794 nM

## C[C@@H](NC(=O)c1ccc(I)cc1NS(=O)(=O)c1cccc2nsnc12)[C@@H](O)c1ccc(Cl)cc1 [Example 99, 2-(Benzo[1,2,5]thiadiazole-4-sulfonylamino)-N-[(2S,1R)-2-(4-chloro-phenyl)-2-hydroxy-1-methyl-ethyl]-4-iodo-benzamide]
[1]
  Ki: 79.4 nM
[2]
  Ki: 794 nM

## C[C@@H](NC(=O)c1ccc(I)cc1NS(=O)(=O)c1cccc2nsnc12)[C@@H](O)c1cccc(Br)c1 [Example 101, 2-(Benzo[1,2,5]thiadiazole-4-sulfonylamino)-N-[(2S,1R)-2-(3-bromo-phenyl)-2-hydroxy-1-methyl-ethyl]-4-iodo-benzamide]
[1]
  Ki: 39.8 nM
[2]
  Ki: 794 nM

## CC(C)(c1ccc(Cl)cc1)[C@H](NC(=O)c1ccc(Cl)cc1NS(=O)(=O)c1cccc2nsnc12)C(=O)O [Example 107, (S)-2-[2-(Benzo[1,2,5]thiadiazole-4-sulfonylamino)-4-chloro-benzoylamino]-3-(4-chloro-phenyl)-3-methyl-butyric acid]
[1]
  CCK1 pKi: 5.4
[2]
  Ki: 794 nM

## C[C@@H](NC(=O)c1ccc(Cl)cc1NS(=O)(=O)c1cccc2nsnc12)[C@@H](O)c1cccc(Br)c1 [Example 108, 2-(Benzo[1,2,5]thiadiazole-4-sulfonylamino)-N-[(2S,1R)-2-(3-bromo-phenyl)-2-hydroxy-1-methyl-ethyl]-4-chloro-benzamide]
[1]
  CCK1 pKi: 7.6
[2]
  CCK2 pKi: 5.9

From US7855292B2, “Sulfonamide compounds” (Janssen Pharmaceutica NV, priority 2004, dated 2010)
